“And” between values parts separate entries of the source, which are not always exact repeats. Equal entries are not always repeated. Where two headings read alike, the source gives them in different places. Non-standard residues stand in square brackets, D forms with d. Residues, ends and D or L forms follow the SMILES beside them. *: point of attachment. NH(3,5-(CF3)2-benzyl) = FC(F)(F)c1cc(CN*)cc(C(F)(F)F)c1; NMePhe(4-F) = CN[C@@H](Cc1ccc(F)cc1)C(=O)O; Phe(4-F) = N[C@@H](Cc1ccc(F)cc1)C(=O)O; Dmt = Cc1cc(O)cc(C)c1C[C@H](N)C(=O)O; NMeF = CN[C@@H](Cc1ccccc1)C(=O)O
What was measured:
MOR [1] = test: Radioligand binding assay at μ opioid receptor; settings: for Log[IC50±] (μ): log IC50 ± error; for Ki^μ/Ki^δ: ratio of binding affinities MOR/DOR
Experimental: (§1) Binding affinities of these ligands were measured on radioligand binding assays. […] ([43]).

DOR [2] = target: DOR (Homo sapiens, UniProt P41143); test: Radioligand binding assay at δ opioid receptor; settings: for Ki: Ki^δ (nM)
DOR (Homo sapiens, UniProt P41143), sequence (P41143 whole entry): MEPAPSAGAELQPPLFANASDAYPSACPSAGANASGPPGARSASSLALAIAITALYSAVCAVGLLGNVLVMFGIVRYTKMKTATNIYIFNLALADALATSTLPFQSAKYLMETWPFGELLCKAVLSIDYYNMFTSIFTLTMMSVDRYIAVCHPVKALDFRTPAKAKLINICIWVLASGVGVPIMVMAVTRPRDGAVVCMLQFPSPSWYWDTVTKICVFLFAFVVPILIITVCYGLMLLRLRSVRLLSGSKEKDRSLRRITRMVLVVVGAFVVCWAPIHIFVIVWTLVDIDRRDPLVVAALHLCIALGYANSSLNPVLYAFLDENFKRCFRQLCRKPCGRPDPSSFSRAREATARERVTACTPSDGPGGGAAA
Experimental: as §1

MOR [3] = test: Guinea pig isolated ileum (GPI) functional assay; type: cell-based
DOR [4] = target: T1, DOR (Mus musculus, UniProt P32300); test: Mouse isolated vas deferens (MVD) functional assay; type: cell-based
T1 construct: Male ICR mice under CO2 anesthesia were sacrificed by cervical dislocation and the vasa differentia removed; from tissue; host or cells: mouse vas deferens (ICR mice)
T1 sequence (P32300 whole entry): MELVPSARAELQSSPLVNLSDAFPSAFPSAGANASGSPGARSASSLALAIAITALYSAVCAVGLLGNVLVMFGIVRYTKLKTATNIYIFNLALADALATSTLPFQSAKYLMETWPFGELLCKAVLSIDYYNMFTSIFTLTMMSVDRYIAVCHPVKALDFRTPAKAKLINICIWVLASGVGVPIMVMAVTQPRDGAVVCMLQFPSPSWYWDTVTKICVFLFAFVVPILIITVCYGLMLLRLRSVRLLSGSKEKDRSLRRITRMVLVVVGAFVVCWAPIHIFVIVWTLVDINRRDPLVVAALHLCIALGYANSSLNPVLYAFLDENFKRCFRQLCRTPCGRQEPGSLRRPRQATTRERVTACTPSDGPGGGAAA

NK1R = target: T2, NK1R (Cavia porcellus, UniProt P30547); test: GPI/LMMP functional assay at NK1R (agonist and antagonist testing); type: cell-based, guinea pig; settings: for GPI/LMMP (NK1R) Agonist: agonist activity at the concentration in the cell
T2 construct: The longitudinal muscle with myenteric plexus (LMMP) was carefully separated from the circular muscle; from tissue; host or cells: guinea pig ileum longitudinal muscle with myenteric plexus
T2 sequence (P30547 whole entry): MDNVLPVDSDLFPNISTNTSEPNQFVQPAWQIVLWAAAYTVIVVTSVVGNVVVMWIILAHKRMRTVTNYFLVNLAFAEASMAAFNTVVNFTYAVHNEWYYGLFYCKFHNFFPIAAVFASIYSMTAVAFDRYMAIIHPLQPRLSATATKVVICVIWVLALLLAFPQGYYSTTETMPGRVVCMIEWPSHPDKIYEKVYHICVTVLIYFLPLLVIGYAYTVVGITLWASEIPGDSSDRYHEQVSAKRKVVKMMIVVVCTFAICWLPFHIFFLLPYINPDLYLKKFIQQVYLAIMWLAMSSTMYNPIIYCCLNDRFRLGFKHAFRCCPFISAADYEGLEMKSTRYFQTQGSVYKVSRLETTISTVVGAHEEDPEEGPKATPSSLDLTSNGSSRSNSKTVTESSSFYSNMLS

[5] = system: rats (acute thermal pain, paw withdrawal reflex)
in vitro = settings: rat, plasma
hNK1 = target: T3, hNK1 (Homo sapiens, UniProt P25103); test: hNK1/CHO cell membrane radioligand binding assay ([3H]SP); settings: for Ki: Ki^hNK1 (nM), hNK1/CHO membranes, [3H]SP; for Ki^hNK1/Ki^rNK1: ratio human/rat NK1
T3 construct: expressed in transfected cells; host or cells: CHO
T3 sequence (P25103 whole entry): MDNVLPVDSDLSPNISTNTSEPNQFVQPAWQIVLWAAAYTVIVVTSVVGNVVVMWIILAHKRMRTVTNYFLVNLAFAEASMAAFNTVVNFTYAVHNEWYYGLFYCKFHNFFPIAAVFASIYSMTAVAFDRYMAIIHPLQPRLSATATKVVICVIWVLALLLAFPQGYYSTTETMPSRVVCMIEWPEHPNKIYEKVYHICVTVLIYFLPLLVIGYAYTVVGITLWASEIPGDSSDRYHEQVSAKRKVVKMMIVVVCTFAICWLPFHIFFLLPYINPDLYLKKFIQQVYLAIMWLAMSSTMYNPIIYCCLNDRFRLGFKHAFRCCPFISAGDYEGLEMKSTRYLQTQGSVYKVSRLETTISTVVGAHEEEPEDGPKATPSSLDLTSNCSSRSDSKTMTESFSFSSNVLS

rNK1 = rNK1 (Rattus norvegicus, UniProt P14600); test: Radioligand binding assay at rat NK1 receptor; settings: Ki^rNK1 (nM)
rNK1, sequence (P14600 whole entry): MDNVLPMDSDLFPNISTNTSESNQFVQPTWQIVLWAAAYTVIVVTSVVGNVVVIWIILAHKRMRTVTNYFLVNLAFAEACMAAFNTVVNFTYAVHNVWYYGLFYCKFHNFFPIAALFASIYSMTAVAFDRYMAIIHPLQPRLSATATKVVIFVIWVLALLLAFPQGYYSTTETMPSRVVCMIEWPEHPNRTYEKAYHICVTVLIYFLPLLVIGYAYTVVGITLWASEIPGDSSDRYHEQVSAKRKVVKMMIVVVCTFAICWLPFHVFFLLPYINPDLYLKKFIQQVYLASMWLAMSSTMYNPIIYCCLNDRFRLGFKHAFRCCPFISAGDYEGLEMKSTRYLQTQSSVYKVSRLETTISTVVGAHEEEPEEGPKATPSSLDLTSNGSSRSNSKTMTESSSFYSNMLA
Experimental: as §1

[6] = agonist activity, electrically stimulated tissue, read-out: GPI (MOR) IC50
[7] = MVD (DOR) IC50 (nM), agonist activity, electrically stimulated tissue
[8] = GPI/LMMP (NK1R) Ke (nM) ± S.E.M., antagonist activity
[9] = head of Table IX, read-out: GPI (MOR) ID50

Row | SMILES | Ki (MOR [1]) [nM] | Log[IC50±] (μ) (MOR [1]) | IC50 (DOR [2]) [nM] | IC50 (MOR [3]; [6]) | IC50 (DOR [4]; [7]) | Ki^μ/Ki^δ (MOR [1]) | Ki (DOR [2]) [nM] | Ki (hNK1) | Ki^hNK1/Ki^rNK1 (hNK1) | Ki (rNK1) [nM] | Kb (NK1R; [8]) | GPI/LMMP (NK1R) Agonist (NK1R) | GPI/MVD IC50 ratio (MOR [3]) | IC50 (MOR [3]; [9]) [nM] | also measured
1 | Cc1cc(O)cc(C)c1C[C@H](N)C(=O)N[C@H](C)C(=O)NCC(=O)N(C)[C@@H](Cc1ccccc1)C(=O)N1CCC[C@H]1C(=O)N[C@@H](CC(C)C)C(=O)N[C@@H](Cc1c[nH]c2ccccc12)C(=O)NCc1cc(C(F)(F)F)cc(C(F)(F)F)c1 [AKG115, H-Dmt-D-Ala-Gly-NMePhe-Pro-Leu-Trp-NH-Bn(3′,5′-(CF3)2)] | 1 | −8.78 ± 0.05 | 12 | 21 nM and 20.6 nM | 30.7 ± 7.5 nM |  |  |  |  |  |  |  |  |  | Kb (NK1R; antagonist activity, read-out: GPI/LMMP (NK1R) Ke (nM) ± S.E.M.): 9.7 nM; maximal level of antinociception ([5]; 0.1 μg i.t.): minimal; motor skills ([5]; 10 μg in 5 μl): motor skills were impaired; Paw withdrawal latencies (PWLs) ([5]; spinal 0.1 μg in 5 μL, 60 min after the injection): not significantly higher than vehicle-treated rats and baseline values; half-life (in vitro): > 24 h
2 | CC(C)C[C@H](NC(=O)[C@@H]1CCCN1C(=O)CNC(=O)[C@H](Cc1ccc(F)cc1)NC(=O)CNC(=O)[C@@H](C)NC(=O)[C@@H](N)Cc1ccc(O)cc1)C(=O)N[C@@H](Cc1c[nH]c2ccccc12)C(=O)NCc1cc(C(F)(F)F)cc(C(F)(F)F)c1 [AKG130, H-Tyr-D-Ala-Gly-Phe(4-F)-Gly-Pro-Leu-Trp-NH-Bn(3′,5′-(CF3)2)] (H-Y[dA]G[Phe(4-F)]GPLW-{NH(3,5-(CF3)2-benzyl)}) | 9 | −7.69 ± 0.06 | 11 | 340 nM and 339 nM | 11.9 ± 1.56 nM | 2/1 | 5 | 1.54 nM | 1/47 | 72 | 11 nM and 10.6 nM | None at 300 nM |  |  | 
3 | CC(C)C[C@H](NC(=O)[C@@H]1CCCN1C(=O)CNC(=O)[C@H](Cc1ccc(F)cc1)N(C)C(=O)CNC(=O)[C@@H](C)NC(=O)[C@@H](N)Cc1ccc(O)cc1)C(=O)N[C@@H](Cc1c[nH]c2ccccc12)C(=O)NCc1cc(C(F)(F)F)cc(C(F)(F)F)c1 [AKG131, H-Tyr-D-Ala-Gly-NMePhe(4-F)-Gly-Pro-Leu-Trp-NH-Bn(3′,5′-(CF3)2)] (H-Y[dA]G[NMePhe(4-F)]GPLW-{NH(3,5-(CF3)2-benzyl)}) |  | −6.40 ± 0.32 | 38 | 63 nM and 62.5 nM | 30 nM and 29.7 nM | 11/1 | 17 | 2 nM | 1/8 | 89 | 35.8 ± 10.8 nM | None at 100 nM | 2/1 |  | 
4 | Cc1cc(O)cc(C)c1C[C@H](N)C(=O)N[C@H](C)C(=O)NCC(=O)N(C)[C@@H](Cc1ccccc1)C(=O)N[C@@H](CO)C(=O)N1CCC[C@H]1C(=O)N[C@@H](CC(C)C)C(=O)N[C@@H](Cc1c[nH]c2ccccc12)C(=O)NCc1cc(C(F)(F)F)cc(C(F)(F)F)c1 [AKG132] (H-[Dmt][dA]G[NMeF]SPLW-{NH(3,5-(CF3)2-benzyl)}) | 0.4 | −9.03 ± 0.06 | 5.25 | 43 nM | 7.66 ± 2.03 nM | 1/5 | 2 | 5.6 nM and 5.61 nM | 1/6 | 36 | 19.8 ± 2.9 nM | None at 30 nM |  | 42.6 ± 6 | 
5 | CC(C)C[C@H](NC(=O)[C@@H]1CCCN1C(=O)[C@H](CO)NC(=O)[C@H](Cc1ccc(F)cc1)N(C)C(=O)CNC(=O)[C@@H](C)NC(=O)[C@@H](N)Cc1ccc(O)cc1)C(=O)N[C@@H](Cc1c[nH]c2ccccc12)C(=O)NCc1cc(C(F)(F)F)cc(C(F)(F)F)c1 [AKG134] (H-Y[dA]G[NMePhe(4-F)]SPLW-{NH(3,5-(CF3)2-benzyl)}) | 2 | −8.27 ± 0.11 | 14.5 |  | 8.94 ± 0.795 nM | 1/4 | 7 | 7.95 ± 0.87 nM | 1/6 | 50.2 ± 16.9 | 1.86 ± 0.43 nM | None at 30 nM | 21/1 | 184 ± 30.9 | 
6 | Cc1cc(O)cc(C)c1C[C@H](N)C(=O)N[C@H](C)C(=O)NCC(=O)N(C)[C@@H](Cc1ccc(F)cc1)C(=O)N[C@@H](CO)C(=O)N1CCC[C@H]1C(=O)N[C@@H](CC(C)C)C(=O)N[C@@H](Cc1c[nH]c2ccccc12)C(=O)NCc1cc(C(F)(F)F)cc(C(F)(F)F)c1 [AKG135] (H-[Dmt][dA]G[NMePhe(4-F)]SPLW-{NH(3,5-(CF3)2-benzyl)}; N-terminus assumed) | 0.5 | −8.93 ± 0.09 | 1 | 23 nM | 15.4 ± 5.4 nM | 1/1 | 0.5 | 7.26 ± 0.59 nM | 1/7 | 51.7 ± 16.2 | 28.7 ± 11.1 nM | None at 100 nM | 2/1 | 23.4 ± 4.74 | 
7 | CC(C)C[C@H](NC(=O)[C@@H]1CCCN1C(=O)c1ccc(NC(=O)[C@H](Cc2ccccc2)N(C)C(=O)CNC(=O)[C@@H](C)NC(=O)[C@@H](N)Cc2ccc(O)cc2)cc1)C(=O)N[C@@H](Cc1c[nH]c2ccccc12)C(=O)NCc1cc(C(F)(F)F)cc(C(F)(F)F)c1 [AKG176, H-Tyr-D-Ala-Gly-NMePhe-4-Abz-Pro-Leu-Trp-NH-Bn(3′,5′-(CF3)2)] | 1 | −8.69 ± 0.24 | 182 | 40.8 ± 8 nM |  | 1/82 | 70 | 5.3 nM | 1/19 | 74 |  | None at 300 nM | 2/1 |  | IC50 (DOR [4]): 22.8 ± 5.53 nM; Kb (NK1R): 117 ± 31.4 nM
8 | CC(C)C[C@H](NC(=O)[C@@H]1CCCN1C(=O)[C@H](Cc1ccc(F)cc1)NC(=O)CNC(=O)[C@@H](C)NC(=O)[C@@H](N)Cc1ccc(O)cc1)C(=O)N[C@@H](Cc1c[nH]c2ccccc12)C(=O)NCc1cc(C(F)(F)F)cc(C(F)(F)F)c1 [AKG190, H-Tyr-D-Ala-Gly-Phe(4-F)-Pro-Leu-Trp-NH-Bn(3′,5′-(CF3)2)] | 4 | −8.08 ± 0.10 |  | 65 nM and 64.8 nM | 12.1 ± 4 nM | 20/1 | 0.2 | 5.61 ± 0.65 nM | 1/6 |  |  | None at 30 nM |  |  | binding selectivity for DOR over MOR (DOR [2]): 20 times; higher agonist activity at DOR compared to MOR (functional assays) (DOR [4]): 5 times; half-life (in vitro): < 2 h
9 | CC(C)C[C@H](NC(=O)[C@@H]1CCCN1C(=O)CNC(=O)[C@H](CO)NC(=O)[C@H](Cc1ccccc1)N(C)C(=O)CNC(=O)[C@@H](C)NC(=O)[C@@H](N)Cc1ccc(O)cc1)C(=O)N[C@@H](Cc1c[nH]c2ccccc12)C(=O)NCc1cc(C(F)(F)F)cc(C(F)(F)F)c1 [AKG-CRA-136] (H-Y[dA]G[NMeF]SGPLW-{NH(3,5-(CF3)2-benzyl)}) | 3 | −8.07 ± 0.18 | 85.1 |  | 22.6 ± 2.07 nM | 1/9 | 38 | 9.23 ± 1.38 nM | 1/17 | 156 ± 2.33 | 27.6 ± 2.9 nM | None at 100 nM | 5/1 | 108 ± 44.8 | 
10 | Cc1cc(O)cc(C)c1C[C@H](N)C(=O)N[C@H](C)C(=O)NCC(=O)N(C)[C@@H](Cc1ccccc1)C(=O)N[C@@H](CO)C(=O)NCC(=O)N1CCC[C@H]1C(=O)N[C@@H](CC(C)C)C(=O)N[C@@H](Cc1c[nH]c2ccccc12)C(=O)NCc1cc(C(F)(F)F)cc(C(F)(F)F)c1 [AKG-CRA-137] (H-[Dmt][dA]G[NMeF]SGPLW-{NH(3,5-(CF3)2-benzyl)}) | 0.7 | −8.82 ± 0.26 | 2.69 | 7.9 nM | 16.4 ± 5.17 nM |  | 1 | 4.9 nM and 4.76 nM | 1/18 | 87.5 | 26.3 ± 5.7 nM | None at 100 nM | 1/2 | 7.87 ± 2.57 | 
11 | CSCC[C@H](NC(=O)[C@H](Cc1ccccc1)NC(=O)CNC(=O)[C@@H](C)NC(=O)[C@@H](N)Cc1c(C)cc(O)cc1C)C(=O)N1CCC[C@H]1C(=O)N[C@@H](CC(C)C)C(=O)N[C@@H](Cc1c[nH]c2ccccc12)C(=O)NCc1cc(C(F)(F)F)cc(C(F)(F)F)c1 [TY032, H-Dmt-D-Ala-Gly-Phe-Met-Pro-Leu-Trp-NH-Bn(3′,5′-(CF3)2), reference compound] |  |  |  |  |  |  |  |  |  |  |  |  |  |  | half-life (in vitro): > 6 h

From patent publication US11141452B2, “Bifunctional compounds for relief of pain comprising an opioid receptor agonist moiety and a NK1 receptor antagonist moiety and methods for treating pain” (THE ARIZONA BOARD OF REGENTS ON BEHALF OF THE UNIVERSITY OF …, priority 2014, dated 2021)
